Data: the NIST ThermoML archive (doi:10.1021/je0501843)
Several values for one entry are separate records, joined by “and”; a condition that tells them apart may be missing. Equal entries are not always repeated. ± gives the expanded uncertainty stated by the source.

Test: molar heat capacity at constant volume
Settings: Fluid (supercritical or subcritical phases), Vacuum adiabatic calorimetry

FC(F)C(F)(F)F [pentafluoroethane]
Settings | molar heat capacity at constant volume
365 K, Mass density=773.3 kg/m3 | 119.04 ± 2.4 J/K/mol
365 K, Mass density=881.8 kg/m3 | 110.32 ± 2.2 J/K/mol
365 K, Mass density=973.8 kg/m3 | 106.41 ± 2.1 J/K/mol and 108.3 ± 2.2 J/K/mol
365 K, Mass density=1075 kg/m3 | 105.75 ± 2.1 J/K/mol
366 K, Mass density=403.6 kg/m3 | 108.16 ± 2.2 J/K/mol
366 K, Mass density=503 kg/m3 | 114.45 ± 2.3 J/K/mol
366 K, Mass density=585.5 kg/m3 | 119.7 ± 2.4 J/K/mol and 112.44 ± 2.3 J/K/mol
366 K, Mass density=688.1 kg/m3 | 116.48 ± 2.3 J/K/mol
366 K, Mass density=881.7 kg/m3 | 110.43 ± 2.2 J/K/mol
366 K, Mass density=973.7 kg/m3 | 107.62 ± 2.2 J/K/mol and 109.23 ± 2.2 J/K/mol
366 K, Mass density=1074.9 kg/m3 | 106.22 ± 2.1 J/K/mol
367 K, Mass density=403.6 kg/m3 | 110.86 ± 2.2 J/K/mol
367 K, Mass density=502.9 kg/m3 | 113.31 ± 2.3 J/K/mol
367 K, Mass density=585.4 kg/m3 | 117.62 ± 2.4 J/K/mol and 110.28 ± 2.2 J/K/mol
367 K, Mass density=688.1 kg/m3 | 115.05 ± 2.3 J/K/mol
367 K, Mass density=881.7 kg/m3 | 109.7 ± 2.2 J/K/mol
367 K, Mass density=973.6 kg/m3 | 107.58 ± 2.2 J/K/mol and 108.96 ± 2.2 J/K/mol
367 K, Mass density=1074.8 kg/m3 | 106.41 ± 2.1 J/K/mol
368 K, Mass density=403.5 kg/m3 | 111.09 ± 2.2 J/K/mol
368 K, Mass density=502.9 kg/m3 | 112.14 ± 2.3 J/K/mol
368 K, Mass density=585.4 kg/m3 | 115.53 ± 2.3 J/K/mol and 108.9 ± 2.2 J/K/mol
368 K, Mass density=688 kg/m3 | 113.01 ± 2.3 J/K/mol
368 K, Mass density=773.1 kg/m3 | 111.16 ± 2.2 J/K/mol
368 K, Mass density=881.6 kg/m3 | 109.62 ± 2.2 J/K/mol
368 K, Mass density=973.6 kg/m3 | 106.75 ± 2.1 J/K/mol and 108.55 ± 2.2 J/K/mol
368 K, Mass density=1074.7 kg/m3 | 106.17 ± 2.1 J/K/mol
369 K, Mass density=403.5 kg/m3 | 111.67 ± 2.2 J/K/mol
369 K, Mass density=502.9 kg/m3 | 113.46 ± 2.3 J/K/mol
369 K, Mass density=585.4 kg/m3 | 118.03 ± 2.4 J/K/mol and 110.31 ± 2.2 J/K/mol
369 K, Mass density=688 kg/m3 | 114.37 ± 2.3 J/K/mol
369 K, Mass density=773.1 kg/m3 | 112.65 ± 2.3 J/K/mol
369 K, Mass density=881.6 kg/m3 | 110.94 ± 2.2 J/K/mol
369 K, Mass density=973.5 kg/m3 | 108.28 ± 2.2 J/K/mol and 109.62 ± 2.2 J/K/mol
369 K, Mass density=1074.6 kg/m3 | 106.18 ± 2.1 J/K/mol
370 K, Mass density=403.5 kg/m3 | 111.22 ± 2.2 J/K/mol
370 K, Mass density=502.9 kg/m3 | 114.85 ± 2.3 J/K/mol
370 K, Mass density=585.4 kg/m3 | 118.04 ± 2.4 J/K/mol and 108.82 ± 2.2 J/K/mol
370 K, Mass density=687.9 kg/m3 | 116.1 ± 2.3 J/K/mol
370 K, Mass density=773 kg/m3 | 113 ± 2.3 J/K/mol
370 K, Mass density=881.5 kg/m3 | 111.13 ± 2.2 J/K/mol
370 K, Mass density=973.4 kg/m3 | 107.54 ± 2.2 J/K/mol and 109.82 ± 2.2 J/K/mol
370 K, Mass density=1074.5 kg/m3 | 106.55 ± 2.1 J/K/mol
371 K, Mass density=403.5 kg/m3 | 112.09 ± 2.3 J/K/mol
371 K, Mass density=502.9 kg/m3 | 116.62 ± 2.3 J/K/mol
371 K, Mass density=585.3 kg/m3 | 116.07 ± 2.3 J/K/mol and 110.26 ± 2.2 J/K/mol
371 K, Mass density=687.9 kg/m3 | 113.67 ± 2.3 J/K/mol
371 K, Mass density=773 kg/m3 | 111.62 ± 2.2 J/K/mol
371 K, Mass density=881.4 kg/m3 | 110.7 ± 2.2 J/K/mol
371 K, Mass density=973.3 kg/m3 | 107.44 ± 2.2 J/K/mol and 109.17 ± 2.2 J/K/mol
371 K, Mass density=1074.4 kg/m3 | 107.07 ± 2.1 J/K/mol
372 K, Mass density=403.5 kg/m3 | 114.04 ± 2.3 J/K/mol
372 K, Mass density=502.8 kg/m3 | 115.24 ± 2.3 J/K/mol
372 K, Mass density=585.3 kg/m3 | 115.84 ± 2.3 J/K/mol and 110.71 ± 2.2 J/K/mol
372 K, Mass density=687.9 kg/m3 | 112.84 ± 2.3 J/K/mol
372 K, Mass density=772.9 kg/m3 | 111.54 ± 2.2 J/K/mol
372 K, Mass density=881.4 kg/m3 | 110.3 ± 2.2 J/K/mol
372 K, Mass density=973.3 kg/m3 | 107.17 ± 2.2 J/K/mol and 108.04 ± 2.2 J/K/mol
372 K, Mass density=1074.3 kg/m3 | 106.22 ± 2.1 J/K/mol
373 K, Mass density=403.5 kg/m3 | 113.17 ± 2.3 J/K/mol
373 K, Mass density=502.8 kg/m3 | 117.01 ± 2.4 J/K/mol
373 K, Mass density=585.3 kg/m3 | 117.2 ± 2.4 J/K/mol and 110.91 ± 2.2 J/K/mol
373 K, Mass density=687.8 kg/m3 | 113.56 ± 2.3 J/K/mol
373 K, Mass density=772.9 kg/m3 | 111.8 ± 2.2 J/K/mol
373 K, Mass density=881.3 kg/m3 | 111.19 ± 2.2 J/K/mol
373 K, Mass density=973.2 kg/m3 | 107.61 ± 2.2 J/K/mol and 108.78 ± 2.2 J/K/mol
374 K, Mass density=403.4 kg/m3 | 114.45 ± 2.3 J/K/mol
374 K, Mass density=502.8 kg/m3 | 119.13 ± 2.4 J/K/mol
374 K, Mass density=585.3 kg/m3 | 117.5 ± 2.4 J/K/mol and 112.68 ± 2.3 J/K/mol
374 K, Mass density=687.8 kg/m3 | 114.16 ± 2.3 J/K/mol
374 K, Mass density=772.9 kg/m3 | 112.71 ± 2.3 J/K/mol
374 K, Mass density=881.2 kg/m3 | 112 ± 2.3 J/K/mol
374 K, Mass density=973.1 kg/m3 | 108.98 ± 2.2 J/K/mol and 110.07 ± 2.2 J/K/mol
375 K, Mass density=403.4 kg/m3 | 112.95 ± 2.3 J/K/mol
375 K, Mass density=502.8 kg/m3 | 117.92 ± 2.4 J/K/mol
375 K, Mass density=585.2 kg/m3 | 116.64 ± 2.3 J/K/mol and 110.73 ± 2.2 J/K/mol
375 K, Mass density=687.8 kg/m3 | 113.4 ± 2.3 J/K/mol
375 K, Mass density=772.8 kg/m3 | 112.33 ± 2.3 J/K/mol
375 K, Mass density=881.2 kg/m3 | 111 ± 2.2 J/K/mol
375 K, Mass density=973 kg/m3 | 108.25 ± 2.2 J/K/mol and 109.81 ± 2.2 J/K/mol
376 K, Mass density=403.4 kg/m3 | 116.08 ± 2.3 J/K/mol
376 K, Mass density=502.8 kg/m3 | 116.37 ± 2.3 J/K/mol
376 K, Mass density=585.2 kg/m3 | 116.55 ± 2.3 J/K/mol and 110.52 ± 2.2 J/K/mol
376 K, Mass density=687.7 kg/m3 | 113.56 ± 2.3 J/K/mol
376 K, Mass density=772.8 kg/m3 | 112.56 ± 2.3 J/K/mol
376 K, Mass density=881.1 kg/m3 | 110.12 ± 2.2 J/K/mol
376 K, Mass density=973 kg/m3 | 107.55 ± 2.2 J/K/mol and 109 ± 2.2 J/K/mol
377 K, Mass density=403.4 kg/m3 | 115.48 ± 2.3 J/K/mol
377 K, Mass density=502.7 kg/m3 | 117.28 ± 2.4 J/K/mol
377 K, Mass density=585.2 kg/m3 | 116.34 ± 2.3 J/K/mol and 111.62 ± 2.2 J/K/mol
377 K, Mass density=687.7 kg/m3 | 114.45 ± 2.3 J/K/mol
377 K, Mass density=772.7 kg/m3 | 113.06 ± 2.3 J/K/mol
377 K, Mass density=881.1 kg/m3 | 110.86 ± 2.2 J/K/mol
377 K, Mass density=972.9 kg/m3 | 108.42 ± 2.2 J/K/mol and 108.94 ± 2.2 J/K/mol
378 K, Mass density=403.4 kg/m3 | 113.28 ± 2.3 J/K/mol
378 K, Mass density=502.7 kg/m3 | 118.29 ± 2.4 J/K/mol
378 K, Mass density=585.1 kg/m3 | 116.82 ± 2.4 J/K/mol and 112.87 ± 2.3 J/K/mol
378 K, Mass density=687.6 kg/m3 | 114.84 ± 2.3 J/K/mol
378 K, Mass density=772.7 kg/m3 | 112.51 ± 2.3 J/K/mol
378 K, Mass density=881 kg/m3 | 111.43 ± 2.2 J/K/mol
378 K, Mass density=972.8 kg/m3 | 108.14 ± 2.2 J/K/mol and 110.22 ± 2.2 J/K/mol
379 K, Mass density=403.3 kg/m3 | 117.97 ± 2.4 J/K/mol
379 K, Mass density=502.7 kg/m3 | 115.21 ± 2.3 J/K/mol
379 K, Mass density=585.1 kg/m3 | 116.17 ± 2.3 J/K/mol and 112.3 ± 2.3 J/K/mol
379 K, Mass density=687.6 kg/m3 | 115.82 ± 2.3 J/K/mol
379 K, Mass density=772.6 kg/m3 | 113.55 ± 2.3 J/K/mol
379 K, Mass density=880.9 kg/m3 | 111.09 ± 2.2 J/K/mol
379 K, Mass density=972.7 kg/m3 | 107.65 ± 2.2 J/K/mol and 109.27 ± 2.2 J/K/mol
380 K, Mass density=403.3 kg/m3 | 116.02 ± 2.3 J/K/mol
380 K, Mass density=502.7 kg/m3 | 112.64 ± 2.3 J/K/mol
380 K, Mass density=585.1 kg/m3 | 111.27 ± 2.2 J/K/mol
380 K, Mass density=687.6 kg/m3 | 113.06 ± 2.3 J/K/mol
380 K, Mass density=772.6 kg/m3 | 113.31 ± 2.3 J/K/mol
380 K, Mass density=880.9 kg/m3 | 111.18 ± 2.2 J/K/mol
380 K, Mass density=972.6 kg/m3 | 107.71 ± 2.2 J/K/mol and 108.81 ± 2.2 J/K/mol
381 K, Mass density=403.3 kg/m3 | 114.7 ± 2.3 J/K/mol
381 K, Mass density=502.6 kg/m3 | 115.06 ± 2.3 J/K/mol
381 K, Mass density=585 kg/m3 | 114.39 ± 2.3 J/K/mol
381 K, Mass density=687.5 kg/m3 | 113.14 ± 2.3 J/K/mol
381 K, Mass density=772.5 kg/m3 | 113.07 ± 2.3 J/K/mol
381 K, Mass density=880.8 kg/m3 | 112.11 ± 2.3 J/K/mol
381 K, Mass density=972.6 kg/m3 | 113.29 ± 2.3 J/K/mol and 109.7 ± 2.2 J/K/mol
382 K, Mass density=403.3 kg/m3 | 116.14 ± 2.3 J/K/mol
382 K, Mass density=502.6 kg/m3 | 117.31 ± 2.4 J/K/mol
